According to paper PMC11397024, “Strategic Fluorination to Achieve a Potent, Selective, Metabolically Stable, and Orally Bioavailable Inhibitor of CSNK2” (Molecules, 2024):

Key:
Test in all cases: NanoBRET K192
Assay type in all cases: cell-based
LCK = target: T1, LCK (Homo sapiens, UniProt P06239); conditions: HEK293
T1 construct: purchased Promega (NanoBRET Target Engagement K192 Kinase Selectivity System)
Method in brief: (§1)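 HEK293 cells were transfected overnight with NanoLuc–kinase fusion vectors, then treated for 2 h at 37 °C with compound (added as 100 μM working solution) plus K10 tracer. BRET was read at 450/610 nm after substrate and extracellular inhibitor, and fractional occupancy was calculated against no-compound controls.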

TIE1 = target: T2, TIE1 (Homo sapiens, UniProt P35590); conditions: HEK293
T2 construct: purchased Promega (NanoBRET Target Engagement K192 Kinase Selectivity System)
Method in brief: as §1

EPHB1 = target: T3, EPHB1 (Homo sapiens, UniProt P54762); conditions: HEK293
T3 construct: purchased Promega (NanoBRET Target Engagement K192 Kinase Selectivity System)
Method in brief: as §1

TEC = target: T4, TEC (Homo sapiens, UniProt P42680); conditions: HEK293
T4 construct: purchased Promega (NanoBRET Target Engagement K192 Kinase Selectivity System)
Method in brief: as §1

SNF1LK2 = target: T5, SNF1LK2 (Homo sapiens, UniProt Q9H0K1); conditions: HEK293
T5 construct: host or cells: HEK293
Method in brief: as §1

EPHB4 = target: T6, EPHB4 (Homo sapiens, UniProt P54760); conditions: HEK293
T6 construct: purchased Promega (NanoBRET Target Engagement K192 Kinase Selectivity System)
Method in brief: as §1

TNK1 = target: T7, TNK1 (Homo sapiens, UniProt Q13470); conditions: HEK293
T7 construct: purchased Promega (NanoBRET Target Engagement K192 Kinase Selectivity System)
Method in brief: as §1

CDK5 + CDK5R1 = target: T8, CDK5 + CDK5R1 (Homo sapiens, UniProt Q00535); conditions: HEK293
T8 construct: purchased Promega (NanoBRET Target Engagement K192 Kinase Selectivity System)
Method in brief: as §1

ERN1 = target: T9, ERN1 (Homo sapiens, UniProt O75460); conditions: HEK293
T9 construct: purchased Promega (NanoBRET Target Engagement K192 Kinase Selectivity System)
Method in brief: as §1

MAP4K5 = target: T10, MAP4K5 (Homo sapiens, UniProt Q9Y4K4); conditions: HEK293
T10 construct: purchased Promega (NanoBRET Target Engagement K192 Kinase Selectivity System)
Method in brief: as §1

SBK3 = target: T11, SBK3 (Homo sapiens, UniProt P0C264); conditions: HEK293
T11 construct: purchased Promega (NanoBRET Target Engagement K192 Kinase Selectivity System)
Method in brief: as §1

CDK1 + B1 = target: T12, CDK1 + B1 (Homo sapiens, UniProt P06493); conditions: HEK293
T12 construct: purchased Promega (NanoBRET Target Engagement K192 Kinase Selectivity System)
Method in brief: as §1

TLK1 = target: T13, TLK1 (Homo sapiens, UniProt Q9UKI8); conditions: HEK293
T13 construct: host or cells: HEK293
Method in brief: as §1

RET = target: T14, RET (Homo sapiens, UniProt P07949); conditions: HEK293
T14 construct: purchased Promega (NanoBRET Target Engagement K192 Kinase Selectivity System)
Method in brief: as §1

CSNK2A1 = target: T15, CSNK2A1 (Homo sapiens, UniProt P68400)
T15 construct: expressed in transfected cells; host or cells: HEK293
Method in brief: as §1

MAPK9 = target: T16, MAPK9 (Homo sapiens, UniProt P45984); conditions: HEK293
T16 construct: purchased Promega (NanoBRET Target Engagement K192 Kinase Selectivity System)
Method in brief: as §1

ABL2 = target: T17, ABL2 (Homo sapiens, UniProt P42684); conditions: HEK293
T17 construct: purchased Promega (NanoBRET Target Engagement K192 Kinase Selectivity System)
Method in brief: as §1

WEE1 = target: T18, WEE1 (Homo sapiens, UniProt P30291); conditions: HEK293
T18 construct: purchased Promega (NanoBRET Target Engagement K192 Kinase Selectivity System)
Method in brief: as §1

CDK14 + Y = target: T19, CDK14 + Y (Homo sapiens, UniProt O94921); conditions: HEK293
T19 construct: purchased Promega (NanoBRET Target Engagement K192 Kinase Selectivity System)
Method in brief: as §1

MAP3K3 = target: T20, MAP3K3 (Homo sapiens, UniProt Q99759); conditions: HEK293
T20 construct: purchased Promega (NanoBRET Target Engagement K192 Kinase Selectivity System)
Method in brief: as §1

STK36 = target: T21, STK36 (Homo sapiens, UniProt Q9NRP7); conditions: HEK293
T21 construct: host or cells: HEK293
Method in brief: as §1

IRAK4 = target: T22, IRAK4 (Homo sapiens, UniProt Q9NWZ3); conditions: HEK293
T22 construct: purchased Promega (NanoBRET Target Engagement K192 Kinase Selectivity System)
Method in brief: as §1

IKBKE = target: T23, IKBKE (Homo sapiens, UniProt Q14164); conditions: HEK293
T23 construct: purchased Promega (NanoBRET Target Engagement K192 Kinase Selectivity System)
Method in brief: as §1

NEK3 = target: T24, NEK3 (Homo sapiens, UniProt P51956); conditions: HEK293
T24 construct: host or cells: HEK293
Method in brief: as §1

STK10 = target: T25, STK10 (Homo sapiens, UniProt O94804); conditions: HEK293
T25 construct: purchased Promega (NanoBRET Target Engagement K192 Kinase Selectivity System)
Method in brief: as §1

CDK3 + E1 = target: T26, CDK3 + E1 (Homo sapiens, UniProt Q00526); conditions: HEK293
T26 construct: purchased Promega (NanoBRET Target Engagement K192 Kinase Selectivity System)
Method in brief: as §1

MAP3K11 = target: T27, MAP3K11 (Homo sapiens, UniProt Q16584); conditions: HEK293
T27 construct: purchased Promega (NanoBRET Target Engagement K192 Kinase Selectivity System)
Method in brief: as §1

CDKL2 = target: T28, CDKL2 (Homo sapiens, UniProt Q92772); conditions: HEK293
T28 construct: purchased Promega (NanoBRET Target Engagement K192 Kinase Selectivity System)
Method in brief: as §1

T15 sequence (P68400 whole entry): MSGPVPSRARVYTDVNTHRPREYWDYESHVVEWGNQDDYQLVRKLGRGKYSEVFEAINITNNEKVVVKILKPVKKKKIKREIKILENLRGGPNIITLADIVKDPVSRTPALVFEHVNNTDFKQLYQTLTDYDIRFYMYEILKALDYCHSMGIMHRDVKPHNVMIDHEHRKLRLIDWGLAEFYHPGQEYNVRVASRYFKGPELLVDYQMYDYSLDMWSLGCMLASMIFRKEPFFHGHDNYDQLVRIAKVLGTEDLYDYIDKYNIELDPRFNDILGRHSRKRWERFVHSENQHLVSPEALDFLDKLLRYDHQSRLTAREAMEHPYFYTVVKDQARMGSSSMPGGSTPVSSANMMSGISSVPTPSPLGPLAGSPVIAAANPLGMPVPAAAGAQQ
T21 sequence (Q9NRP7 whole entry): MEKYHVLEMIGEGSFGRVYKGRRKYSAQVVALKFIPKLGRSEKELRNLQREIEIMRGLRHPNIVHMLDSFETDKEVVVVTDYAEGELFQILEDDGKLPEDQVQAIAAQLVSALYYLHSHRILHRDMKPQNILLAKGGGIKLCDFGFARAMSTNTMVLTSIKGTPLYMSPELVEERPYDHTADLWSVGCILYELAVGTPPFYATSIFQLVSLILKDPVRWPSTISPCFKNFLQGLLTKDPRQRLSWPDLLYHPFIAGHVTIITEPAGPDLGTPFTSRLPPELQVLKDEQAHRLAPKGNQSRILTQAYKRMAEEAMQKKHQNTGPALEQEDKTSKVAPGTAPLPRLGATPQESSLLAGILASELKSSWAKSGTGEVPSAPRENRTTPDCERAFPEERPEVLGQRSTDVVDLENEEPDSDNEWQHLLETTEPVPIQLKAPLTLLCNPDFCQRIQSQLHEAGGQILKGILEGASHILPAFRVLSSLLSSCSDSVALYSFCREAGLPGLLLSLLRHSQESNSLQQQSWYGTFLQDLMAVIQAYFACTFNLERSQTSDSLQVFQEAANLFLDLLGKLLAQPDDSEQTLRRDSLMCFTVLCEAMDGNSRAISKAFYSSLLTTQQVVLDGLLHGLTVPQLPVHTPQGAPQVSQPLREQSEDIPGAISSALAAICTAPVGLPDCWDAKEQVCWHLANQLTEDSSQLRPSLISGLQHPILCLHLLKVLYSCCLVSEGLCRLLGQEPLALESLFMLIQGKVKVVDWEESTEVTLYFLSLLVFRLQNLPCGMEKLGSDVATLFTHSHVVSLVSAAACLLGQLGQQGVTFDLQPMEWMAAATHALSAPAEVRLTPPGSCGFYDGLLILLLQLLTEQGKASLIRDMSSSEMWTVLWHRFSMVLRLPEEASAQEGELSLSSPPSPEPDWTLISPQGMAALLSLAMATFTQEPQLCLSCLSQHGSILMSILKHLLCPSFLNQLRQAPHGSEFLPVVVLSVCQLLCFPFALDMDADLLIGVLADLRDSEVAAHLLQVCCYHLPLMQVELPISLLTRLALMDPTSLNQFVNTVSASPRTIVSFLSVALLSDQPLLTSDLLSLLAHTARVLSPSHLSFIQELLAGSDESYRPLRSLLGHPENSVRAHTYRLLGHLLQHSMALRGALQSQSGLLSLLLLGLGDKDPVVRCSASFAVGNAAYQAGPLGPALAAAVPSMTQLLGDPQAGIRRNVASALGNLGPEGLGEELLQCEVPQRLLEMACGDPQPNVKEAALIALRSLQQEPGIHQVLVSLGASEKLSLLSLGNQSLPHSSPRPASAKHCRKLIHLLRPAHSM
T5 sequence (Q9H0K1 whole entry): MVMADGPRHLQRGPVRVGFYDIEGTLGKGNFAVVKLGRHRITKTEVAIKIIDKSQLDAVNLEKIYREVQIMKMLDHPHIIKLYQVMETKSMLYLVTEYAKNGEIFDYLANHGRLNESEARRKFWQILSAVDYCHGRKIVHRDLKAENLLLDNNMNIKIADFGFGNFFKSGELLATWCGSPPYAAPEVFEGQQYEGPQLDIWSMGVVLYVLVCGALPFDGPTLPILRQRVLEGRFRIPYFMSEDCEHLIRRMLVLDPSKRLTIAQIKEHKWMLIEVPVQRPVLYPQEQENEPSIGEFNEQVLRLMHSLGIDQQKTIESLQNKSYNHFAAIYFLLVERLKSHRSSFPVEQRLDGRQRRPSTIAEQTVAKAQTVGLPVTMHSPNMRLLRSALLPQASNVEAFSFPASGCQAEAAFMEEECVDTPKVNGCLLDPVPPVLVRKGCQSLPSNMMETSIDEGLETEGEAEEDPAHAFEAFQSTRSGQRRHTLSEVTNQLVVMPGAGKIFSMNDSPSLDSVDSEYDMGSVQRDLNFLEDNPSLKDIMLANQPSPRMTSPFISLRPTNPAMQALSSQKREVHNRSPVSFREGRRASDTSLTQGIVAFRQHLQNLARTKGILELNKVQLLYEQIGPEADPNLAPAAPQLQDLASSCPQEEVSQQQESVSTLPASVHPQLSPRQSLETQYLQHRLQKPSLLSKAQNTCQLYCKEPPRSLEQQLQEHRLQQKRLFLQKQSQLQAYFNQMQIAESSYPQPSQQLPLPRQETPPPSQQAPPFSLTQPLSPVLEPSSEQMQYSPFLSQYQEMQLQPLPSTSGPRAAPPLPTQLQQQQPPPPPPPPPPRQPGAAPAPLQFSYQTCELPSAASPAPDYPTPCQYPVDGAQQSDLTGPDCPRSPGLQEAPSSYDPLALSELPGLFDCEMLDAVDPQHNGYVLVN
T20 sequence (Q99759 whole entry): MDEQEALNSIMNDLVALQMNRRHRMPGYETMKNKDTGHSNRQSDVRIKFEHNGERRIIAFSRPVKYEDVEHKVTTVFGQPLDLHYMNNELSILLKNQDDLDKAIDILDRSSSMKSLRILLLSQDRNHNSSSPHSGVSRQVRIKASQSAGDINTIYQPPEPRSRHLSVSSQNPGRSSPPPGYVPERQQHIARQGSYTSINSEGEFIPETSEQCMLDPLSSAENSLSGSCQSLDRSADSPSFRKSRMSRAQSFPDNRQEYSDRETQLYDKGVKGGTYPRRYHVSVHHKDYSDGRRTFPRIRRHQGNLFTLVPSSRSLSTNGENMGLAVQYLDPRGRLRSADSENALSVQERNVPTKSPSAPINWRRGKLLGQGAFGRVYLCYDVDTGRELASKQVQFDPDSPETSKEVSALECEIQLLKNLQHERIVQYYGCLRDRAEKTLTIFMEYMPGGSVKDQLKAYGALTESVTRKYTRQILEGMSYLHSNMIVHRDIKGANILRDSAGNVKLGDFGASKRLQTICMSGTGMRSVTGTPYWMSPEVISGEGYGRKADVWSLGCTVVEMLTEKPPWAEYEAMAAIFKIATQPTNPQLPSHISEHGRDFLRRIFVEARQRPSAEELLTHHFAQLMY
T12 sequence (P06493 whole entry): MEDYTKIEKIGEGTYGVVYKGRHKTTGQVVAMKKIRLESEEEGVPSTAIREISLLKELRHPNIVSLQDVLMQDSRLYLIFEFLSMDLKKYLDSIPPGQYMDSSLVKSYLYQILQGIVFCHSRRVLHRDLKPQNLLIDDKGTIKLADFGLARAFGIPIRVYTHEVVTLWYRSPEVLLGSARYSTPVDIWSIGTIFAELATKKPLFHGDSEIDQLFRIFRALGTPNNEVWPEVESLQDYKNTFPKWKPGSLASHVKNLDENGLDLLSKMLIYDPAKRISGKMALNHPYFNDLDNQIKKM
T12 sequence (P14635 whole entry partner): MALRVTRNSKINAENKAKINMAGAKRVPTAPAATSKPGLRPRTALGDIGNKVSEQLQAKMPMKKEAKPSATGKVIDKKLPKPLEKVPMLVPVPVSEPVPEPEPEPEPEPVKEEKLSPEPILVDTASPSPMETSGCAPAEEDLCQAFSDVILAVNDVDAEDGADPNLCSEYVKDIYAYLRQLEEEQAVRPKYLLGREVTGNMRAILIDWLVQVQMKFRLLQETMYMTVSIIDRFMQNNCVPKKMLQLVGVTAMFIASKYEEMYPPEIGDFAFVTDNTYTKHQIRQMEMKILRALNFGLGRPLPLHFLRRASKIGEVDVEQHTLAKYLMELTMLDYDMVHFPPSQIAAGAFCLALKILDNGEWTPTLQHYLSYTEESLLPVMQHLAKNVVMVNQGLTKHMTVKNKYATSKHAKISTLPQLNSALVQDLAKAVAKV
T14 sequence (P07949 29-1114): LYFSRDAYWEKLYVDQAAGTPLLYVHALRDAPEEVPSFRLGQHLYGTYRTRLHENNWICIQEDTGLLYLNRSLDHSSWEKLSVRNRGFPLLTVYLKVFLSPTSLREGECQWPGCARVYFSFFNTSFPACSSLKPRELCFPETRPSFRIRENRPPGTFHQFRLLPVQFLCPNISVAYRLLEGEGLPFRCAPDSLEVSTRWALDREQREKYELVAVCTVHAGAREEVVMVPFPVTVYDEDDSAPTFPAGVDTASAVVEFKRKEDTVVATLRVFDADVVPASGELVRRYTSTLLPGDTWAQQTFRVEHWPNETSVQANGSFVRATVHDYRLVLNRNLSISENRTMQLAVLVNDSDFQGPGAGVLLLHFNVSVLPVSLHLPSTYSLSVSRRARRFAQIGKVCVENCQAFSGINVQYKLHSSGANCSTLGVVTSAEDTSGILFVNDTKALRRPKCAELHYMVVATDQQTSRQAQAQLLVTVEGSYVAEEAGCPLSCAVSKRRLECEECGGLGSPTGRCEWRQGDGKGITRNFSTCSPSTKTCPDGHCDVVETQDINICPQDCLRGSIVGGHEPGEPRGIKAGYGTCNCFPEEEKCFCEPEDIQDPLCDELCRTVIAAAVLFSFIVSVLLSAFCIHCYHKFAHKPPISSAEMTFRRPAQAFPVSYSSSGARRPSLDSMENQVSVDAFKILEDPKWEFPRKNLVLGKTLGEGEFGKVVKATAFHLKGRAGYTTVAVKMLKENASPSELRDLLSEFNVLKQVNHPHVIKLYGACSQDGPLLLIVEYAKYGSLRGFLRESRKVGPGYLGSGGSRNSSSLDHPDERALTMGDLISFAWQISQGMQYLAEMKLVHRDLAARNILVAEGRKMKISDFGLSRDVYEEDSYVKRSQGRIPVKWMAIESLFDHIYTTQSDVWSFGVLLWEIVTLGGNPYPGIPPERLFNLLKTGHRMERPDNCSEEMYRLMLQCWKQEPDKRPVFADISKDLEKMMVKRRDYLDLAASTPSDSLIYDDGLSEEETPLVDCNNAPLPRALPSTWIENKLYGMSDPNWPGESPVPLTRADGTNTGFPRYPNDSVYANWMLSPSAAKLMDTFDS

CCC(=O)Nc1cc(Nc2cc(NC3CC3)n3ncc(C#N)c3n2)c(F)cc1N1CCC[C@H](NC)C1 [Compound 2, (S)-N-(5-((3-cyano-7-(cyclopropylamino)pyrazolo[1,5-a]pyrimidin-5-yl)amino)-4-fluoro-2-(3-(methylamino)piperidin-1-yl)phenyl)propionamide]
receptor occupancy at 10 µM (LCK): 4.9%
receptor occupancy at 10 µM (TIE1): 20.6%
receptor occupancy at 10 µM (EPHB1): 4.7%
receptor occupancy at 10 µM (TEC): 9.1%
receptor occupancy at 10 µM (SNF1LK2): -4.8%
receptor occupancy at 10 µM (EPHB4): 4.4%
receptor occupancy at 10 µM (TNK1): 6.8%
receptor occupancy at 10 µM (CDK5 + CDK5R1): 10.8%
receptor occupancy at 10 µM (ERN1): 3%
receptor occupancy at 10 µM (MAP4K5): 8.5%
receptor occupancy at 10 µM (SBK3): 15.9%
receptor occupancy at 10 µM (CDK1 + B1): 6.2%
receptor occupancy at 10 µM (TLK1): -23.1%
receptor occupancy at 10 µM (RET): 1.8%
% occupancy at 10 μM (CSNK2A1; CSNK2A1, HEK293): 97%
receptor occupancy at 10 µM (CSNK2A1; HEK293, CSNK2A1): 97.3%
receptor occupancy at 10 µM (MAPK9): 2.4%
receptor occupancy at 10 µM (ABL2): 9.4%
receptor occupancy at 10 µM (WEE1): 17.8%
receptor occupancy at 10 µM (CDK14 + Y): 29.4%
receptor occupancy at 10 µM (MAP3K3): 10.1%
receptor occupancy at 10 µM (STK36): -7.6%
receptor occupancy at 10 µM (IRAK4): 9.2%
receptor occupancy at 10 µM (IKBKE): 23.4%
receptor occupancy at 10 µM (NEK3): -11.1%
receptor occupancy at 10 µM (STK10): 14.4%
receptor occupancy at 10 µM (CDK3 + E1): 12.1%
receptor occupancy at 10 µM (MAP3K11): 19.5%
receptor occupancy at 10 µM (CDKL2): 13.6%
